Assays:
Assay in all cases: KINOMEscan competition binding
Conditions in all cases: compound 10.0 µM
AXL (human) = AXL (human) (UniProt P30530)
YES1 (human) = YES1 (human) (UniProt P07947)
PRKAA1 (human) = PRKAA1 (human) (UniProt Q13131)
[1] = test system: PIK3CA (human), P42336 [M1043I]
[2] = biological target: JAK3 JH1 catalytic (human) (UniProt P52333)
ICK (human) = ICK (human) (UniProt Q9UPZ9)
LRRK2 (human) = LRRK2 (human) (UniProt Q5S007)
CDK2 (human) = CDK2 (human) (UniProt P24941)
NEK2 (human) = NEK2 (human) (UniProt P51955)
IRAK3 (human) = IRAK3 (human) (UniProt Q9Y616)
IRAK3 (human), sequence (Q9Y616 whole entry, looked up): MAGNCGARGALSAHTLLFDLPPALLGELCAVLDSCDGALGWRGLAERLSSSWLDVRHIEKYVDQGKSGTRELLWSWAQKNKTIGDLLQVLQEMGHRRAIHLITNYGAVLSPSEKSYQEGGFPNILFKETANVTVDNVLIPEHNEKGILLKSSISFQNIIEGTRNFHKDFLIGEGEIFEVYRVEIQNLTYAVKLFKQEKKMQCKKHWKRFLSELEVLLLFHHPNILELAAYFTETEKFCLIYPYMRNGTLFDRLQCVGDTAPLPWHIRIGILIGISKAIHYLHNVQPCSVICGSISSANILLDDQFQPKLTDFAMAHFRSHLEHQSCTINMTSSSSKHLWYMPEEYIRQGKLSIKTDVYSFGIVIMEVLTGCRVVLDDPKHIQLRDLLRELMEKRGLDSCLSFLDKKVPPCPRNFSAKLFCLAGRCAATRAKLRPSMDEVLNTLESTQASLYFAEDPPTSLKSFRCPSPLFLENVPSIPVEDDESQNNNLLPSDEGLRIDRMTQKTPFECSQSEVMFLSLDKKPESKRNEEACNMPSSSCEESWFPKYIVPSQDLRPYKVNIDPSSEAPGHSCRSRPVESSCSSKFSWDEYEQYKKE

MYLK (human) = MYLK (human) (UniProt Q15746)
TYRO3 (human) = TYRO3 (human) (UniProt Q06418)
MLTK (human) = MLTK (human) (UniProt Q9NYL2)
BRSK1 (human) = BRSK1 (human) (UniProt Q8TDC3)
CSNK2A2 (human) = CSNK2A2 (human) (UniProt P19784)
TEK (human) = TEK (human) (UniProt Q02763)
AURKA (human) = AURKA (human) (UniProt O14965)
MYLK4 (human) = MYLK4 (human) (UniProt Q86YV6)
MYLK4 (human), sequence (Q86YV6 whole entry, looked up): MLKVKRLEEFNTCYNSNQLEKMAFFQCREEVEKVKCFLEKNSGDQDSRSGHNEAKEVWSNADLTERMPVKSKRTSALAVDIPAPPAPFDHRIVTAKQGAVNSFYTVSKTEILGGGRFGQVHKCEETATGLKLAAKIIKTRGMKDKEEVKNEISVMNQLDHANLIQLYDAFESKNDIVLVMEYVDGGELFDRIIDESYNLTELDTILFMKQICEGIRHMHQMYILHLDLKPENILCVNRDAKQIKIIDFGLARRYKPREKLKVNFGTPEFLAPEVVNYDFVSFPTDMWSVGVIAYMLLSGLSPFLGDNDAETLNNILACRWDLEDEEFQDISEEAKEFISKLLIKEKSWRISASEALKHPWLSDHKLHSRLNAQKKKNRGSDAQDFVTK

MAPKAPK2 (human) = MAPKAPK2 (human) (UniProt P49137)
RPS6KA4 KD1 (human) = RPS6KA4 KD1 (human) (UniProt O75676)
LCK (human) = LCK (human) (UniProt P06239)
MAPK14 (human) = MAPK14 (human) (UniProt Q16539)
ACVR1 (human) = ACVR1 (human) (UniProt Q04771)
AKT3 (human) = AKT3 (human) (UniProt Q9Y243)
ACVR1B (human) = ACVR1B (human) (UniProt P36896)
MYO3A (human) = MYO3A (human) (UniProt Q8NEV4)
MYO3A (human), sequence (Q8NEV4 whole entry, looked up): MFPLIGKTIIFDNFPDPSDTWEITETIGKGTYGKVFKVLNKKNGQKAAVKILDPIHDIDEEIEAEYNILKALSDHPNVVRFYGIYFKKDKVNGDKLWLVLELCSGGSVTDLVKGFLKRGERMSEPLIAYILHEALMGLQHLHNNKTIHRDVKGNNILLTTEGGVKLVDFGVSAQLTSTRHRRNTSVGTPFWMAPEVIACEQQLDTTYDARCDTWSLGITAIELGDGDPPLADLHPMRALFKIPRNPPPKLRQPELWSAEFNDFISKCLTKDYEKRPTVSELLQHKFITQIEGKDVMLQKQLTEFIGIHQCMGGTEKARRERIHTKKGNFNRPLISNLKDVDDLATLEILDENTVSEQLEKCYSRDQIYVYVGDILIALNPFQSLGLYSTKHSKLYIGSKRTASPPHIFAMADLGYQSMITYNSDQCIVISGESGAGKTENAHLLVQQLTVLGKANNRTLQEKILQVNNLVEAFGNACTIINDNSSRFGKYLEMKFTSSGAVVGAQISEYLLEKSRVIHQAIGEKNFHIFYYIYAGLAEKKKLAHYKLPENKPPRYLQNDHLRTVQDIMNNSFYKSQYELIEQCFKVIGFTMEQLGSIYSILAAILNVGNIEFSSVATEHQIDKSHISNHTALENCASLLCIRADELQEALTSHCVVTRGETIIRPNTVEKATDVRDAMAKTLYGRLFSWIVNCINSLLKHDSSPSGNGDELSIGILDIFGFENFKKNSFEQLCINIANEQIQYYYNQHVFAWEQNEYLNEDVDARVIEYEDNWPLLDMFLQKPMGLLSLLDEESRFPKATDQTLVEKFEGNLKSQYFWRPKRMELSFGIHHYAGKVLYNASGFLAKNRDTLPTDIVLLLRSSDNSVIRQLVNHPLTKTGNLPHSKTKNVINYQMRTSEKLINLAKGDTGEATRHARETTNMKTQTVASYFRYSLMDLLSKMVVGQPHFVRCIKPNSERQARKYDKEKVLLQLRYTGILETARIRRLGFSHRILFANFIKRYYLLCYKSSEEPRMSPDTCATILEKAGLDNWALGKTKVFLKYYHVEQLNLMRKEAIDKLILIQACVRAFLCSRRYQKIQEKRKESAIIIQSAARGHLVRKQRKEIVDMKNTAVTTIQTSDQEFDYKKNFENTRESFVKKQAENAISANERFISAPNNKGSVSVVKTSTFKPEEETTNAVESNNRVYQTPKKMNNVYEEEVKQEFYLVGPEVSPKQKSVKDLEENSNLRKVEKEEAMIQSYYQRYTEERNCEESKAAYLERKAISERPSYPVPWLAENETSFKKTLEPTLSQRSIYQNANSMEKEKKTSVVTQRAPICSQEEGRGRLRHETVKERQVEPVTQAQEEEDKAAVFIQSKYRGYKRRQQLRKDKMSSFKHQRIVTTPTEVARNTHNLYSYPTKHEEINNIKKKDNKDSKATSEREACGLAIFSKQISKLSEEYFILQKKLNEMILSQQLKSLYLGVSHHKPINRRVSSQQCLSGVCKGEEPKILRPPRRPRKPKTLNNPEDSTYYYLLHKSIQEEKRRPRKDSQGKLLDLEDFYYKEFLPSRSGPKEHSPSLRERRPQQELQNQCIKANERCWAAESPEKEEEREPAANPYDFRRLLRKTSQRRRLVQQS

CDK4 CCND1 (human) = CDK4 CCND1 (human) (UniProt P11802+P24385)
CDK4 CCND1 (human), sequence (P11802 whole entry, looked up): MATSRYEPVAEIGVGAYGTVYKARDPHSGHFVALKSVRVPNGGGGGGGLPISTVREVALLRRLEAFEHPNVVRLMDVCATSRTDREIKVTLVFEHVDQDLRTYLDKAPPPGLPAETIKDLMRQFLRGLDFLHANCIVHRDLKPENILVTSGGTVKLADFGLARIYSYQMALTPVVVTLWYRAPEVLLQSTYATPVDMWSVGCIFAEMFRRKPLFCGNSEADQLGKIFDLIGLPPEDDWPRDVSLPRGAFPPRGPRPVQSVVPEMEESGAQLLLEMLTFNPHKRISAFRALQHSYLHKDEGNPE
CDK4 CCND1 (human), sequence (P24385 whole entry, looked up): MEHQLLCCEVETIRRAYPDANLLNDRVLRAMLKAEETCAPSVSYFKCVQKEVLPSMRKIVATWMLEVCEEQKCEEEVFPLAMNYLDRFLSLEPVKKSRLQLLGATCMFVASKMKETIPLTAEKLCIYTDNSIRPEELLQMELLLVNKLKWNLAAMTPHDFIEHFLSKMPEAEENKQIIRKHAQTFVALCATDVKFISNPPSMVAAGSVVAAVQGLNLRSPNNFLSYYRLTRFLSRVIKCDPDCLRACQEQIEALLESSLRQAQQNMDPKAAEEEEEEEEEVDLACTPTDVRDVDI

PAK2 (human) = PAK2 (human) (UniProt Q13177)
PIK3CG (human) = PIK3CG (human) (UniProt P48736)
PIK3CG (human), sequence (P48736 whole entry, looked up): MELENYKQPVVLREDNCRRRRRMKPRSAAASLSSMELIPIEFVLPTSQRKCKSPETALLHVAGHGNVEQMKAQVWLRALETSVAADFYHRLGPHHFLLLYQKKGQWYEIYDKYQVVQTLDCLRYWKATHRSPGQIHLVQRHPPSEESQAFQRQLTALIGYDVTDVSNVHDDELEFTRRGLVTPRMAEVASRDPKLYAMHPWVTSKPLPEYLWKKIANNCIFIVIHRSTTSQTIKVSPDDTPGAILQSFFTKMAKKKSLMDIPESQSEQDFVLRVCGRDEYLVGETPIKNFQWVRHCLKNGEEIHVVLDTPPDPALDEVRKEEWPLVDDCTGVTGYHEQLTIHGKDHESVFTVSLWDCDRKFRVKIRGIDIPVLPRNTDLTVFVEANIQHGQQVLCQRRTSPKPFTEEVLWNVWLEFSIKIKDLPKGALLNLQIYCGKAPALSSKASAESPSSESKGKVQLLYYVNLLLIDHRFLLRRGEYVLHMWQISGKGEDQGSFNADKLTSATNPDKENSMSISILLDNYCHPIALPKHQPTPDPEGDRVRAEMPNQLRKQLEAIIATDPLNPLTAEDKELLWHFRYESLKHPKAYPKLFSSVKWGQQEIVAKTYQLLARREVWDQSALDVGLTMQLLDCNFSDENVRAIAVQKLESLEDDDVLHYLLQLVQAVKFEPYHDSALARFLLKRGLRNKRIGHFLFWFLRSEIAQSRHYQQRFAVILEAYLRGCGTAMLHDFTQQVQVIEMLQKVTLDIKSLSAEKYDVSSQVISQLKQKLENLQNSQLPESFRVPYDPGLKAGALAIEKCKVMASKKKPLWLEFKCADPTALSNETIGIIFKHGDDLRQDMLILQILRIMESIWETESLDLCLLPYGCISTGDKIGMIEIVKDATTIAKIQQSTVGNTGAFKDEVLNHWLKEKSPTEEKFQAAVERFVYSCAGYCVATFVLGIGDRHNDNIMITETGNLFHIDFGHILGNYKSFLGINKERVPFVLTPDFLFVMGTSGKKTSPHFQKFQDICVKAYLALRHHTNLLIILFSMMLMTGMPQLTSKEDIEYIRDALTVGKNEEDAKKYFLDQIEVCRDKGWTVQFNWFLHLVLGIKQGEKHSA

CDK14 (human) = CDK14 (human) (UniProt O94921)
CDK14 (human), sequence (O94921 whole entry, looked up): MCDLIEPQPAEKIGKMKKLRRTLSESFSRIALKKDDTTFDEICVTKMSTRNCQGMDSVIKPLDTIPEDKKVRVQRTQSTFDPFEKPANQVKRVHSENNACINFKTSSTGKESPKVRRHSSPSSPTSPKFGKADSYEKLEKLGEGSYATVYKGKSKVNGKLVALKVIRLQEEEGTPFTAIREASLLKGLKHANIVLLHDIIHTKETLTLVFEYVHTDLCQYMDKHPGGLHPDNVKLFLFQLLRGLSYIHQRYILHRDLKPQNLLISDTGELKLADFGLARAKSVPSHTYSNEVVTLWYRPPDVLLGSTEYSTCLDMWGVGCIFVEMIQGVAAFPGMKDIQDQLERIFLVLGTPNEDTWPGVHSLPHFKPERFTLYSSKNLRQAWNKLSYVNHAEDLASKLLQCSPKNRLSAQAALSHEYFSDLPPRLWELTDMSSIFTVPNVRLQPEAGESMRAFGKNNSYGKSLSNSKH

CDKL2 (human) = CDKL2 (human) (UniProt Q92772)
CSNK1D (human) = CSNK1D (human) (UniProt P48730)
MARK1 (human) = MARK1 (human) (UniProt Q9P0L2)
SIK2 (human) = SIK2 (human) (UniProt Q9H0K1)
PIK3CA (human) = PIK3CA (human) (UniProt P42336)
INSRR (human) = INSRR (human) (UniProt P14616)
WEE2 (human) = WEE2 (human) (UniProt P0C1S8)
DAPK3 (human) = DAPK3 (human) (UniProt O43293)
[3] = test system: BMX (human), P51813 [V600E]
[4] = test system: EGFR (human), P00533 [A750P; 747-749 del]

| Structure (SMILES) | kinase still bound, per cent of control (AXL (human)) [%] | kinase still bound, per cent of control (YES1 (human)) [%] | kinase still bound, per cent of control (PRKAA1 (human)) [%] | kinase still bound, per cent of control [1] [%] | kinase still bound, per cent of control (ICK (human)) [%] | kinase still bound, per cent of control (LRRK2 (human)) [%] | kinase still bound, per cent of control (CDK2 (human)) [%] | kinase still bound, per cent of control (NEK2 (human)) [%] | kinase still bound, per cent of control (IRAK3 (human)) [%] | kinase still bound, per cent of control (MYLK (human)) [%] | kinase still bound, per cent of control (TYRO3 (human)) [%] | kinase still bound, per cent of control (MLTK (human)) [%] | kinase still bound, per cent of control (BRSK1 (human)) [%] | kinase still bound, per cent of control (CSNK2A2 (human)) [%] | kinase still bound, per cent of control (TEK (human)) [%] | kinase still bound, per cent of control (AURKA (human)) [%] | kinase still bound, per cent of control (MYLK4 (human)) [%] | kinase still bound, per cent of control (MAPKAPK2 (human)) [%] | kinase still bound, per cent of control (RPS6KA4 KD1 (human)) [%] | kinase still bound, per cent of control (LCK (human)) [%] | other results |
| --- | --- | --- | --- | --- | --- | --- | --- | --- | --- | --- | --- | --- | --- | --- | --- | --- | --- | --- | --- | --- | --- |
| N#C/C(=C1/Nc2ccccc2S1)c1ccnc(NCCc2cccnc2)n1 | 100 | 81 | 100 | 84 | 64 | 100 | 90 | 96 | 38 | 66 | 100 | 97 | 85 | 1 | 100 | 100 | 16 | 100 | 100 | 100 | kinase still bound, per cent of control [2]: 10%; kinase still bound, per cent of control (MAPK14 (human)): 57%; kinase still bound, per cent of control (ACVR1 (human)): 86%; kinase still bound, per cent of control (AKT3 (human)): 100%; kinase still bound, per cent of control (ACVR1B (human)): 84%; kinase still bound, per cent of control (MYO3A (human)): 80%; kinase still bound, per cent of control (CDK4 CCND1 (human)): 32%; kinase still bound, per cent of control (PAK2 (human)): 34%; kinase still bound, per cent of control (PIK3CG (human)): 50%; kinase still bound, per cent of control (CDK14 (human)): 100%; kinase still bound, per cent of control (CDKL2 (human)): 98%; kinase still bound, per cent of control (CSNK1D (human)): 42%; kinase still bound, per cent of control (MARK1 (human)): 100%; kinase still bound, per cent of control (SIK2 (human)): 82%; kinase still bound, per cent of control (PIK3CA (human)): 100%; kinase still bound, per cent of control (INSRR (human)): 100%; kinase still bound, per cent of control (WEE2 (human)): 100%; kinase still bound, per cent of control (DAPK3 (human)): 45%; kinase still bound, per cent of control [3]: 6.8% |
| CC1=C(C(=O)Nc2cc3cn[nH]c3cc2F)C(c2ccc(C(F)(F)F)cc2)CC(=O)N1 (stereo not given) | 84 | 65 | 13 | 93 | 79 | 100 | 79 | 100 | 85 | 75 | 100 | 92 | 93 | 86 | 83 | 46 | 88 | 100 | 98 | 30 | kinase still bound, per cent of control [4]: 36%; kinase still bound, per cent of control (MAPK14 (human)): 100%; kinase still bound, per cent of control (ACVR1 (human)): 100%; kinase still bound, per cent of control (AKT3 (human)): 40%; kinase still bound, per cent of control (ACVR1B (human)): 94%; kinase still bound, per cent of control (MYO3A (human)): 85%; kinase still bound, per cent of control (CDK4 CCND1 (human)): 71%; kinase still bound, per cent of control (PAK2 (human)): 88%; kinase still bound, per cent of control (PIK3CG (human)): 88%; kinase still bound, per cent of control (CDK14 (human)): 89%; kinase still bound, per cent of control (CDKL2 (human)): 94%; kinase still bound, per cent of control (CSNK1D (human)): 92%; kinase still bound, per cent of control (MARK1 (human)): 100%; kinase still bound, per cent of control (SIK2 (human)): 99%; kinase still bound, per cent of control (PIK3CA (human)): 80%; kinase still bound, per cent of control (INSRR (human)): 99%; kinase still bound, per cent of control (WEE2 (human)): 66%; kinase still bound, per cent of control (DAPK3 (human)): 77%; kinase still bound, per cent of control [3]: 87% |
| COc1cc2ncnc(Nc3cccc(Cl)c3)c2cc1OC | 19 | 38 | 100 | 76 | 100 | 79 | 100 | 92 | 30 | 18 | 23 | 94 | 37 | 16 | 97 | 43 | 78 | 100 | 100 | 5.4 | kinase still bound, per cent of control [4]: 1.4%; kinase still bound, per cent of control [2]: 38%; kinase still bound, per cent of control (MAPK14 (human)): 63%; kinase still bound, per cent of control (ACVR1 (human)): 74%; kinase still bound, per cent of control (ACVR1B (human)): 100%; kinase still bound, per cent of control (MYO3A (human)): 83%; kinase still bound, per cent of control (CDK4 CCND1 (human)): 90%; kinase still bound, per cent of control (PAK2 (human)): 53%; kinase still bound, per cent of control (PIK3CG (human)): 44%; kinase still bound, per cent of control (CDK14 (human)): 88%; kinase still bound, per cent of control (CDKL2 (human)): 84%; kinase still bound, per cent of control (CSNK1D (human)): 54%; kinase still bound, per cent of control (MARK1 (human)): 100%; kinase still bound, per cent of control (SIK2 (human)): 67%; kinase still bound, per cent of control (PIK3CA (human)): 76%; kinase still bound, per cent of control (INSRR (human)): 100%; kinase still bound, per cent of control (WEE2 (human)): 81%; kinase still bound, per cent of control (DAPK3 (human)): 35%; kinase still bound, per cent of control [3]: 55% |
| CCc1nc(-c2cccc(C)c2)c(-c2ccnc(NC(=O)c3ccccc3)c2)s1 | 80 | 5.6 | 81 | 95 | 100 | 100 | 100 | 95 | 84 | 84 | 83 | 9.4 | 93 | 86 | 94 | 90 | 100 | 100 | 100 | 41 | kinase still bound, per cent of control [2]: 80%; kinase still bound, per cent of control (ACVR1 (human)): 9.6%; kinase still bound, per cent of control (AKT3 (human)): 95%; kinase still bound, per cent of control (ACVR1B (human)): 4.6%; kinase still bound, per cent of control (MYO3A (human)): 60%; kinase still bound, per cent of control (CDK4 CCND1 (human)): 84%; kinase still bound, per cent of control (PAK2 (human)): 85%; kinase still bound, per cent of control (PIK3CG (human)): 100%; kinase still bound, per cent of control (CDK14 (human)): 99%; kinase still bound, per cent of control (CDKL2 (human)): 80%; kinase still bound, per cent of control (CSNK1D (human)): 2%; kinase still bound, per cent of control (MARK1 (human)): 100%; kinase still bound, per cent of control (SIK2 (human)): 62%; kinase still bound, per cent of control (PIK3CA (human)): 100%; kinase still bound, per cent of control (INSRR (human)): 100%; kinase still bound, per cent of control (WEE2 (human)): 100%; kinase still bound, per cent of control (DAPK3 (human)): 83%; kinase still bound, per cent of control [3]: 23% |

From the kinase profiling compilation of Christmann-Franck et al. (2016)
